Assay results from US8530648B2, “Diaza-spiro[5.5]undecanes” (Novartis AG, priority 2009, dated 2013).

Assays:
[1] = target: T1, hOx2R (Homo sapiens (Human), UniProt O43614); assay: Calcium accumulation in cells (FLIPR), hOx2R; type: cell-based; details: inhibition of orexin A induced calcium accumulation, Cheng and Prusoff correction
How it was run: (§1)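 Cells expressing human orexin 1 or 2 receptor, serum-deprived overnight, loaded with Fluo-4-AM (2 μM) plus 0.1 mM probenecid, pH 7.4 HEPES buffer with 1% BSA.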

[2] = target: T2, hOx1R (Homo sapiens (Human), UniProt O43613); assay: Radioligand binding assay, [3H]-SB649868, hOx1R; details: radioligand [3H]-SB649868, competition
T2 sequence (O43613 whole entry): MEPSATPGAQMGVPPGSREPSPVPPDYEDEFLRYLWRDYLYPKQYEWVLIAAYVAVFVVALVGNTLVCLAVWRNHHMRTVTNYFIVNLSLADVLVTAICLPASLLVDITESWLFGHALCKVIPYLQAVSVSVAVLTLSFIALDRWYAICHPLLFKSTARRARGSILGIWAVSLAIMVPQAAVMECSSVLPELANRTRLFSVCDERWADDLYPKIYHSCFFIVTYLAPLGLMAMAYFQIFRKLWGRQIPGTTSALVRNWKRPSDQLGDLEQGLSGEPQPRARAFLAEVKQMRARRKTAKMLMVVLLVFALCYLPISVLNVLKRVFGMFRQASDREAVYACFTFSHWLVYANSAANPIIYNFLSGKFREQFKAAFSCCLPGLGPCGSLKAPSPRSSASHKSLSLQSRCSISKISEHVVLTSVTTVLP
Method: (§2) For crude cell membrane preparations, cells (CHO, Chinese hamster ovary or HEK, human embryonic kidney) expressing human orexin 1 or human orexin 2 receptors, were washed with HEPES (10 mM, pH 7.5), scraped off the culture plates with the same buffer, and centrifuged at 4° C. for 5 min at 2500×g. The cell pellet was either stored at −80° C. or used directly. Before the experiments, cell membranes were re-suspended in binding assay buffer (10 mM HEPES, 0.5% (w/v) bovine serum albumin, pH 7.5) by homogenisation with a Polytron homogeniser at 50 Hz for 20 s. Cell membranes were also used as made available by commercial providers.
(§3) Bound radioactivity was measured, and data were analysed with the program XLFIT or Graphpad Prism. Protein concentration was determined according to the Bradford/BioRad Protein Assay Kit.
(§4) In competition experiments, cell homogenates (150 μl) were incubated in assay buffer (10 mM HEPES, pH 7.5, 0.5% (w/v) bovine serum albumin, 5 mM MgCl2, 1 mM CaCl2, and tween 0.05%) for 1 h at room temperature with about 1 nM of the radioligand [^3H]-SB649868, 66 Ci/mmole, 50 μl), and with various concentrations of compounds of the invention (50 μl) in triplicates; non-specific binding was determined in the presence of almorexant (10 μM).

[3] = target: T2, hOx1R; assay: Calcium accumulation in cells (FLIPR), hOx1R; type: cell-based; details: for Ki: inhibition of orexin A induced calcium accumulation, Cheng and Prusoff correction
How it was run: as §1

[4] = target: T1, hOx2R; assay: Radioligand binding assay, [3H]-SB649868, hOx2R; details: radioligand [3H]-SB649868, competition
Method: as §2, §3, §4

T1 sequence (O43614 whole entry): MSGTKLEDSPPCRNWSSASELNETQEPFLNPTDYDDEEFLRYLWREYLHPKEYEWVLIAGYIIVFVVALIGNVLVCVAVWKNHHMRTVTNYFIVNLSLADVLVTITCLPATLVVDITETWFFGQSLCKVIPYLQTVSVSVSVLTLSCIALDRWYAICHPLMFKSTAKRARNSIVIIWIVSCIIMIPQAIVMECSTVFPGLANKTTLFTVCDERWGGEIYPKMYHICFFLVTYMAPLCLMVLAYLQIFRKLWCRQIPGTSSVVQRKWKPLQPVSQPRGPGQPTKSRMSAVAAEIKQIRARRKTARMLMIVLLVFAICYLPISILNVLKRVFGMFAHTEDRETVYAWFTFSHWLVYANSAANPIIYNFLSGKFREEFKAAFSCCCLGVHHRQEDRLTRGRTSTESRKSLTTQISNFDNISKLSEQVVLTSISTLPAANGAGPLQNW

Row | SMILES | Ki [1] [nM] | Kd [2] [nM] | Ki [3] [nM] | Kd [4] [nM] | inhibition at 10 µM ([3]; measured at a concentration of 10 μM of compound) [%]
1 | Cc1ccc(-n2nccn2)c(CN2CCCC3(CCN(c4cnc5ccccc5n4)CC3)C2=O)c1 [Example 125, 2-(5-methyl-2-(2H-1,2,3-triazol-2-yl)benzyl)-9-(quinoxalin-2-yl)-2,9-diazaspiro[5.5]undecan-1-one] | 137 | 4990 | 2290 | 324 | 
2 | Cn1cc(CN2C(=O)CCCC23CCN(c2cnc4ccccc4n2)CC3)c2cccnc21 [Example 143, 1-((1-methyl-1H-pyrrolo[2,3-b]pyridin-3-yl)methyl)-9-(quinoxalin-2-yl)-1,9-diazaspiro[5.5]undecan-2-one] | 39 | 307 | 747 | 50 | 
3 | O=C1N(Cc2cccc3nsnc23)CCCC12CCN(c1cnc3ccccc3n1)CC2 [Example 113, 2-(benzo[c][1,2,5]thiadiazol-4-ylmethyl)-9-(quinoxalin-2-yl)-2,9-diazaspiro[5.5]undecan-1-one] | 82 | 3500 | 1360 | 630 | 
4 | O=C1N(Cc2cccc(-n3cccn3)n2)CCCC12CCN(c1cnc3ccccc3n1)CC2 [Example 83, 2-((6-(1H-pyrazol-1-yl)pyridin-2-yl)methyl)-9-(quinoxalin-2-yl)-2,9-diazaspiro[5.5]undecan-1-one] | 80 | 2760 | 1730 | 364 | 
5 | Cc1noc(-c2cccc(CN3CCCC4(CCN(c5cnc6ccccc6n5)CC4)C3=O)c2)n1 [Example 104, 2-(3-(3-methyl-1,2,4-oxadiazol-5-yl)benzyl)-9-(quinoxalin-2-yl)-2,9-diazaspiro[5.5]undecan-1-one] | 106 |  |  | 1370 | 
6 | O=C1N(Cn2nnc3ccccc32)CCCC12CCN(c1cnc3ccccc3n1)CC2 [Example 66, 2-((1H-benzo[d][1,2,3]triazol-1-yl)methyl)-9-(quinoxalin-2-yl)-2,9-diazaspiro[5.5]undecan-1-one] | 302 |  | 1710 |  | 

More lines, now with the values ahead:

Row | Ki [1] [nM] | Kd [2] [nM] | Ki [3] [nM] | Kd [4] [nM] | inhibition at 10 µM ([3]; measured at a concentration of 10 μM of compound) [%] | SMILES
7 | 23 | 1020 | 623 | 139 |  | O=C1N(Cc2c[nH]c3ccccc23)CCCC12CCN(c1nccc3occc13)CC2 [Example 156, 2-((1H-indol-3-yl)methyl)-9-(furo[3,2-c]pyridin-4-yl)-2,9-diazaspiro[5.5]undecan-1-one]
8 | 9 | 105 | 126 | 25 |  | O=C1N(Cc2n[nH]c3ccccc23)CCCC12CCN(c1cnc3ccccc3n1)CC2 [Example 129, 2-((1H-indazol-3-yl)methyl)-9-(quinoxalin-2-yl)-2,9-diazaspiro[5.5]undecan-1-one]
9 | 14 | 90 | 115 | 12 |  | Cc1cc(N2CCC3(CCCN(Cc4c[nH]c5ccccc45)C3=O)CC2)nc2ccccc12 [Example 164, 2-((1H-indol-3-yl)methyl)-9-(4-methylquinolin-2-yl)-2,9-diazaspiro[5.5]undecan-1-one]
10 | 29 | 1280 | 422 | 134 |  | Cn1cc(CN2CCCC3(CCN(c4cnc5ccccc5n4)CC3)C2=O)c2ccccc21 [Example 130, 2-((1-methyl-1H-indol-3-yl)methyl)-9-(quinoxalin-2-yl)-2,9-diazaspiro[5.5]undecan-1-one]
11 | 713 |  |  |  | 40 | O=C1N(Cc2c[nH]c3ccccc23)CCCC12CCN(c1ccc(-c3nccs3)cn1)CC2 [Example 161, 2-((1H-indol-3-yl)methyl)-9-(5-(thiazol-2-yl)pyridin-2-yl)-2,9-diazaspiro[5.5]undecan-1-one]
12 | 786 |  | 2480 |  |  | O=C1N(Cc2c[nH]c3ccccc23)CCCC12CCN(c1nnc(-c3ccccc3)s1)CC2 [Example 171, 2-((1H-indol-3-yl)methyl)-9-(5-phenyl-1,3,4-thiadiazol-2-yl)-2,9-diazaspiro[5.5]undecan-1-one]
